The values below come from patent US11078188B2, “Dihydroquinoxaline bromodomain recognition protein inhibitor, preparation method and use thereof” (SHANGHAI INSTITUTE OF MATERIA MEDICA, CHINESE ACADEMY OF …, priority 2017, dated 2021).

One may read the inhibition as the drop in the measured response relative to a control, in per cent. Broadly, the IC50 is the point on the concentration scale where inhibition reaches its midpoint.

A short description of data set [1]: Metabolic stability in human liver microsomes. The format is in vitro ADME. Particulars: human liver microsomes 0.5 mg/ml, 1 μM compound, NADPH; for microsomal CLint at 1 μM: read-out: HLM Clint; for half-life at 1 μM: read-out: HLM t1/2. On the procedure: The system which was 150 μl of human liver microsomes (final concentration: 0.5 mg/ml) was used for metabolic stability incubation. The system contained reduced coenzyme II (NADPH) (final concentration: 1 mM) and 1 μM compound, positive control or negative control. The reaction was terminated with acetonitrile containing (imiprozine, batch number: 3221; tinidazole, given) at 0 min, 5 min, 10 min, and 30 min, respectively. The mixture was vortexed for 10 min, centrifuged at 15000 rpm for 10 min, and 50 μl of the supernatant was injected into a 96-well plate. The metabolic stability of the compound was calculated by measuring the relative reduction in the original medicament.
(§1) HLM Clint (μl/min/mg) refers to the clearance rate of compounds in human liver microsomes having a unit of μl/min/mg; mLM Clint (μl/min/mg) refers to the clearance rate of compounds in mouse liver microsomes having a unit of μl/min/mg; HLM t1/2 (min) refers to the half-life of the compound in human liver microsomes having a unit of minutes; mLM t1/2 (min) refers to the half-life of the compound in mouse liver microsomes having a unit of minutes. TDI means that the mechanism inhibition test of compounds on CYP enzyme evaluates whether the compound has time-dependent inhibition of the enzyme.
A general note: Liver microsomes are a subcellular fraction often used to study metabolism.

In a further data set the target is 2D6 (Homo sapiens (Human), UniProt P10635). Briefly: Direct inhibition test (DI test), CYP 2D6. The format is in vitro ADME. The following applies: human liver microsomes 0.2 mg/ml, 20 min. On the procedure:
(§2) The system which was 100 μl of human liver microsomes (final concentration: 0.2 mg/ml) was used for direct inhibition incubation. The system contained NADPH (final concentration: 1 mM), 10 μl compound, positive inhibitor cocktail (ketoconazole, 10 μl, quinidine 10 μl, sulfaphenazole 100 μl, naphthoflavone 10 μl, tranylcypromine 1000 μl), negative control 10 μl DMSO and mixed probe substrate (midazolam 10 μl, testosterone 100 μl, dextromethorphan 10 μl, diclofenac 20 μl, phenacetin 100 μl, mephenytoin 100 μl). The reaction was stopped after the system was incubated for 20 min. The relative activity of the enzyme was calculated by measuring the relative amount of production of the metabolite.

The next data set addresses CYP2C19 (Homo sapiens (Human), UniProt P33261). Put plainly: Direct inhibition test (DI test), CYP 2C19. The format is in vitro ADME. Particulars: human liver microsomes 0.2 mg/ml, read-out: Direct inhibition rate (%) 2C19. On the procedure:
as §2

The target in another data set is CYP3A4 (Homo sapiens (Human), UniProt P08684). Put plainly: Direct inhibition test (DI test), CYP 3A4. Particulars: human liver microsomes 0.2 mg/ml, first of two values a/b (two 3A4 probes midazolam, testosterone; assignment not given), read-out: Direct inhibition rate (%) 3A4, first value. The format is in vitro ADME. The method, then: as §2
Sequence of CYP3A4 (P08684 whole entry): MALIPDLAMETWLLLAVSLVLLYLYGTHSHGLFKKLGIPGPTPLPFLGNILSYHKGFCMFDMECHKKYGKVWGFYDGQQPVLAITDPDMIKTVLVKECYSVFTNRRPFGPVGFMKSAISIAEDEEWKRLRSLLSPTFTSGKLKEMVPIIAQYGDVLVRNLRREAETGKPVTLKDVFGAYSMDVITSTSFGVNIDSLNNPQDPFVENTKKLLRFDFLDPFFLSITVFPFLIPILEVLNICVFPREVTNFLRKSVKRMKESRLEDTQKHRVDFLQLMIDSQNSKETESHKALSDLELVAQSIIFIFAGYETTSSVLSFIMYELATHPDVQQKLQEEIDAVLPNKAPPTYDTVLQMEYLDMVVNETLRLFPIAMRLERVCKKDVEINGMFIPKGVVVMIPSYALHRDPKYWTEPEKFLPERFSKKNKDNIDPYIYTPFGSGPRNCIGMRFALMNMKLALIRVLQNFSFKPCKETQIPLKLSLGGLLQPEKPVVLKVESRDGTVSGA
The target in the next data set is 3A4 (Homo sapiens (Human), UniProt P08684). Briefly: Direct inhibition test (DI test), CYP 3A4. Particulars: human liver microsomes 0.2 mg/ml, 20 min; second of two values a/b (two 3A4 probes midazolam, testosterone; assignment not given). The format is in vitro ADME. The method, then:
as §2

The target of another data set is 2C9 (Homo sapiens (Human), UniProt P11712). Put plainly: Direct inhibition test (DI test), CYP 2C9. The format is in vitro ADME. Particulars: human liver microsomes 0.2 mg/ml, 20 min. On the procedure: as §2
Sequence of 2C9 (P11712 whole entry): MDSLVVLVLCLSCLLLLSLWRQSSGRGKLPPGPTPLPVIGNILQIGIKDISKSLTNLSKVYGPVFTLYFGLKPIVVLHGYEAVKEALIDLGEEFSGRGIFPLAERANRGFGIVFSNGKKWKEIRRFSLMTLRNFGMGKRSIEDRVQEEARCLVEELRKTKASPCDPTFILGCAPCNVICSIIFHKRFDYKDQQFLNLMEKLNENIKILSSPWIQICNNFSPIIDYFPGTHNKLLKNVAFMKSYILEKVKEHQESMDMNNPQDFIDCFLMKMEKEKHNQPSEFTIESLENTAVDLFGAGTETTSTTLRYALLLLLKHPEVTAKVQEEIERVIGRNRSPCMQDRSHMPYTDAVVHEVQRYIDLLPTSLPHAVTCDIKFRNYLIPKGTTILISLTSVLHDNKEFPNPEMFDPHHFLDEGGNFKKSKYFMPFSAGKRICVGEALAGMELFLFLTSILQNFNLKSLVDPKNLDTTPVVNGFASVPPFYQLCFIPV
Data set [2] can be described thus: Metabolic stability in mouse liver microsomes. The format is in vitro ADME. The following applies: for half-life at 1 μM: read-out: MLM t1/2; for microsomal CLint at 1 μM: read-out: mLM Clint.
Another data set concerns the target BRD4 (I) (Homo sapiens (Human), UniProt O60885). Put plainly: Fluorescence anisotropy (FA) binding test on BRD4 (I). Particulars: BRD4 (I) 10 nM, fluorescent (+)-JQ1 substrate 5 nM, read-out: BRD4 (1) IC50. On the procedure: The binding activity of the compound to BRD4 (I) was tested using a fluorescence anisotropy (FA) method. The principle of FA test is to calculate and analyze the fluorescence polarization values in the horizontal and vertical directions by detecting the change of molecular weight before and after the interaction of fluorescein-labeled small molecules with other molecules. If the equilibrium of the binding between the fluorescently labeled small molecule and macromolecule is established, it will move slowly when excited, and the measured fluorescence polarization value will increase. If the binding between the fluorescently labeled small molecule and the macromolecule is replaced by another ligand, its rotation or flipping speed in the free state will be faster, and the emitted light will be depolarized relative to the plane of the excitation light, and the measured polarized light value will decrease to calculate the fluorescence anisotropy of the sample.
Expression and purification of the BRD4(I) recognition domain: colonies of newly transformed plasmid DNA from E. coli BL21(DE3)-condon plus-RIL cells were cultivated in 50 mL of Terrific Broth medium containing 50 μg/mL kanamycin and 34 μg/mL chloramphenicol at 37° C. overnight (starting culture). The starting culture was then diluted 100-fold in 1 L of fresh TB medium and the cells were grown at 37° C. to an optical density of about 0.8 at OD600 and then the temperature was lowered to 16° C. When the system was equilibrated at 16° C., the optical density at OD600 was approximately 1.2, and protein expression was induced with 0.2 mmol of isopropyl-β-D-thiogalactopyranoside (IPTG) overnight at 16° C. Bacteria were harvested by centrifugation (4000×g, 20 minutes, 4° C.) and stored as a pellet at −80° C. The cells expressing His 6-tagged protein was resuspend in lysis buffer [50 mmol 4-hydroxyethylpiperazineethanesulfonic acid (HEPES), 25° C., pH 7.5, 500 mmol NaCl, 10 mmol imidazole, 5% glycerol and freshly added 0.5 mmol of tris(2-carboxyethyl)phosphine hydrochloride (TCEP) and 1 mmol of phenylmethanesulfonyl fluoride (PMSF)] and lysed at 4° C. using JN 3000PLUS high pressure homogenizer (JNBIO-Guangzhou, China). The lysate was clarified by centrifugation (12,000×g for 1 hour at 4° C.) and applied to a nickel-nitriloacetate agarose column. The column was washed once with 50 mL of wash buffer containing 30 mmol of imidazole. The protein was eluted using imidazole in an elution buffer in a stepwise elution (100-250 mmol imidazole in 50 mmol HEPES, 25° C., pH 7.5, 500 mmol NaCl, 5% glycerol). All fractions were collected and monitored by SDS-polyacrylamide gel electrophoresis (Bio-Rad Criterion TM Precast Gels, 4-12% Bis-Tris, 1.0 mm, from Bio-Rad, CA). After 1 mmol of dithiothreitol (DTT) was added, the eluted proteins were treated with tobacco […] virus (TEV) protease overnight at 4° C. to remove the His6 tag. The protein was concentrated and further purified by size exclusion chromatography on a Superdex 75 16/60 HiLoad gel filtration column. The samples were monitored by SDS-polyacrylamide gel electrophoresis and concentrated to 8-10 mg/mL with gel filtration buffer, 10 mmol Hepes pH 7.5, 500 mM NaCl, 1 mmol DTT, and used for protein binding assays and crystallization.
The fluorogenic substrate was (+)-JQ1 linked to a fluorescent molecule and the working concentration was 5 nM. BRD4 (I) protein had 10 nM of working concentration and the total reaction system was 40 μL. The buffer was 50 mM 4-hydroxyethylpiperazineethanesulfonic acid (HEPES) pH 7.4, 150 mM NaCl, 0.5 mM 3[(3-cholamidopropyl)dimethylammonio]propanesulfonate (CHAPS). […] The final concentration of DMSO was chosen to be 0.2%, taking into account the solubility of the compound and the effect of DMSO on the assay. All measurements were made under these conditions. […]
(In general: In fluorescence polarisation assays a small probe gives low polarisation when free and higher when bound to something large.)

The subject of another data set is CYP enzyme. Briefly: Mechanistic inhibition test (TDI test). The format is in vitro ADME. Particulars: human liver microsomes 0.2 mg/ml; mechanism inhibition if kobs greater than 200. The method, then:
The system which was 200 μl of human liver microsomes (final concentration: 0.2 mg/ml) was used for mechanistic inhibition incubation. The system contained 10 μl compound, mixed positive inhibitor (Troleandomycin 10 μl, Paroxetine 10 μl, Tienilic acid 10 μM, Furafylline 10 μl) or 10 μl negative control PRO. After NADPH (final concentration: 1 mM) or PBS was added, the system was incubated for 0 min, 5 min, 10 min and 30 min, then NADPH (final concentration: 1 mM) and mixed probe substrate (Midazolam 5 μM, Testosterone 50 μl, Dextromethophan 5 μM, Diclofenac 10 μl, Phenacetin 5 0 μM, S-(+)-mephenytoin 50 μl) were added and incubated for 10 min. Then the reaction was stopped. The test for positive inhibitor CYP2C19 was carried out alone, the inhibitor S-(+)-fluoxetine was 100 μM. The enzyme activity was calculated by measuring the relative production amount of metabolite. kobs was calculated.
as §1

A further data set concerns the target CYP2D6 (Homo sapiens (Human), UniProt P10635). Put plainly: Direct inhibition test (DI test), CYP 2D6. The format is in vitro ADME. The following applies: human liver microsomes 0.2 mg/ml, read-out: Direct inhibition rate (%) 2D6. On the procedure:
as §2

A further data set addresses CYP2C9 (Homo sapiens (Human), UniProt P11712). Put plainly: Direct inhibition test (DI test), CYP 2C9. Particulars: human liver microsomes 0.2 mg/ml, read-out: Direct inhibition rate (%) 2C9. The format is in vitro ADME. On the procedure: as §2
In data set [3] the test system is MM.1S nude mice xenografts. Put plainly: Growth of MM.1S nude mice xenografts in vivo. Details: species or system Balb/C nude mice. The following applies: 50 mg/kg qd/14 po. On the procedure: Balb/C nude mice (6 weeks, female, Beijing Huafukang Biotechnology Co., Ltd.) were purchased, and the animals were conditioned for about one week before the test. MM.1S cells were cultured in vitro, and the cells in logarithmic growth phase were resuspended in serum-free RPMI1640 medium to adjust the cell concentration. The cell suspension was subcutaneously injected into forefoot armpit of the Balb/C nude mice with a syringe, and each animal was injected with 150 μL (8.0×10^6/mouse). When the average tumor volume grew to about ˜150 mm^3, the animals were divided into 4 groups containing solvent control group, 50 mg/kg OTX-015 group, and 20 and 50 mg/kg compound 6 groups by the randomized block method and each group contained six animals. […] During the administration period, the tumor diameter was measured twice a week, the body weight of the animals was weighed, the living state of the animals was observed, and abnormal conditions were recorded.
The formula for calculating tumor volume (TV): TV=½×a×b^2, where a and b represent length and width, respectively.
The relative tumor volume (RTV) was calculated based on the measured results, and the calculation formula was: RTV=Vt/V0. Wherein V0 was the measured tumor volume at the time of administration by cage (ie, d0), and Vt was the tumor volume at each measurement.
The relative tumor proliferation rate T/C (%) was calculated based on the measured results, and the calculation formula was as follows: T/C (%)=(TRTV/CRTV)×100%, TRTV: treatment group RTV; CRTV: negative control group RTV.

The subject of another data set is DLBCL cells. Particulars: cited from earlier work.

Sequence of 3A4 (P08684 whole entry): as the sequence (P08684 whole entry) above
Sequence of CYP2C19 (P33261 whole entry): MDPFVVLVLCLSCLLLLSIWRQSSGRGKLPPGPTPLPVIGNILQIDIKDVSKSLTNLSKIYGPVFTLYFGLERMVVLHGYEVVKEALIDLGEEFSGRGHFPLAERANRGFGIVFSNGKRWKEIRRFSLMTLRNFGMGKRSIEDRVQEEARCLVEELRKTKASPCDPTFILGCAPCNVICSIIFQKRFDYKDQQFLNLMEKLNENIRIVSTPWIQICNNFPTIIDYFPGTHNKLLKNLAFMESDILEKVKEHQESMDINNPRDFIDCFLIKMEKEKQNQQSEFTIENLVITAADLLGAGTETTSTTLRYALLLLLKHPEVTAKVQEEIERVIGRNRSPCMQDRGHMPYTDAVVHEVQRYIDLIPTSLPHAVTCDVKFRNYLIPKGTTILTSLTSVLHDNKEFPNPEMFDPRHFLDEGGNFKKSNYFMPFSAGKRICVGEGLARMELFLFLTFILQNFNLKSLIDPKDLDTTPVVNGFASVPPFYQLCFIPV
Sequence of CYP2C9 (P11712 whole entry): as the sequence (P11712 whole entry) above
Sequence of CYP2D6 (P10635 whole entry): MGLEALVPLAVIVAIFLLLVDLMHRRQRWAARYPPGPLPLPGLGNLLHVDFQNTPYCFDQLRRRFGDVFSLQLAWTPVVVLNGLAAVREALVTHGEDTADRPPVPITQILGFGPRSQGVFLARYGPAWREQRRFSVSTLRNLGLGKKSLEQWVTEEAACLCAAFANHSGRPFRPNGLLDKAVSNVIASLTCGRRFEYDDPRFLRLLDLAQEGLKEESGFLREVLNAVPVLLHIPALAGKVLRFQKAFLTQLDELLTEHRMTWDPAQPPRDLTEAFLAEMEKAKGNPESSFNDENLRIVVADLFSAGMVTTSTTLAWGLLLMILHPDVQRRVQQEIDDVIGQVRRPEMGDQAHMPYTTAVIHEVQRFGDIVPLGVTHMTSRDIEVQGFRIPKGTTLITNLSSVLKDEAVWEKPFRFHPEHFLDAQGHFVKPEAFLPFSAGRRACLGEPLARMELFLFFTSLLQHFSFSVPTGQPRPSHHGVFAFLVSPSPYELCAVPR
Sequence of 2D6 (P10635 whole entry): as above

With `C[C@@H]1C(=O)N(C)c2ccc(-c3nc(C(=O)N4CCCN(C)CC4)nn3-c3ccccc3)cc2N1C1CCCC1` [Example 8], the microsomal CLint at 1 μM was 58 µL/min/mg in data set [1] and 62 µL/min/mg in data set [2]. Besides, the half-life at 1 μM in [1] came to 23.9 min; in data set [2], 22.4 min. Moreover, the “Direct inhibition rate (%) 2D6” value at 2D6 was “no”. Also, the inhibition at 20 min was 35% on CYP2C19 and 5% at CYP3A4. Besides, the “Direct inhibition rate (%) 3A4, second value” on 3A4 is 6%. In addition, the “Direct inhibition rate (%) 2C9” value at 2C9 is recorded as “no”. At BRD4 (I), the IC50 was found to be 9.8 nM. Further, the TDI entry in the data set on CYP enzyme was “no”.
With `Cc1ccc(-n2nc(C(=O)N3CCN(C)CC3)cc2-c2ccc3c(c2)N(C2CCCC2)[C@H](C)C(=O)N3C)cc1` [Example 26], the values for the microsomal CLint at 1 μM in data set [1] and in data set [2] were 66 µL/min/mg and 52 µL/min/mg, respectively. For the same compound, the half-life at 1 μM in data set [1] stood at 21 min; in data set [2], 27 min. Moreover, the inhibition at 20 min on CYP2D6 stood at 4%; at CYP2C19, 34%; at CYP3A4, 35%; on CYP2C9 it was 39%. Further, the “Direct inhibition rate (%) 3A4, second value” at 3A4 worked out at 37%. For the same compound, the IC50 on BRD4 (I) stood at 5.1 nM. The TDI entry in the data set with CYP enzyme is listed as “no”.
Regarding `Cc1sc2c(c1C)C(c1ccc(Cl)cc1)=N[C@@H](CC(=O)Nc1ccc(O)cc1)c1nnc(C)n1-2` [OTX-015, reference compound], in [3], the “RTV (mean SD)” value came out at 603.15 and the “T/C (%)” value is listed as 49.90%. Further, the “TV (mm^3, mean) d0” value in [3] (d0 (at start of administration)) amounted to 184.48 mm^3. Also, the “TV (mm^3, mean) d14” value in [3] (d14) is 886.75 mm^3. Further, the IC50 in the data set on DLBCL cells is 192 nM.
